According to PubChem BioAssay AID1159561 (GlaxoSmithKline (GSK), 2015):
Calls of active or inactive are those of the source.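 How the source made its calls: active means toxic to mouse fibroblast host cells, with IC50 below 50 µM; inactive means the rest.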

tested on: NIH-3T3 viability, ATP luminescence; assay: murine fibroblast viability via ATP level – cell-based, murine fibroblasts, cytotoxicity control for Trypanosoma cruzi inhibitor project (AID 1159561); conditions: 4 days

Structure (SMILES)	IC50
CCN(C)Cc1ccc(N2CCC(NS(=O)(=O)c3ccc4c(c3)CCO4)CC2)nc1	13 µM
CS(=O)(=O)c1cccc(CNC(=O)c2cncc(N3CCN(c4ccc(F)cc4)CC3)c2)c1	25 µM
CC1(Oc2cncc(Cl)c2)CCN(Cc2cc3ccccc3[nH]2)C1 (centres undefined)	10 µM
CS(=O)(=O)NC1CCC(Oc2cc3cnccc3cc2-c2ccsc2)CC1 (centres undefined)	16 µM
CC(C)(C)C(Cn1ccnc1)NC(=O)c1ccc2nc(C3CC3)oc2c1 (centres undefined)	> 50 µM (inactive)
Fc1ccccc1N1C[C@H]2CCN(c3cccnc3)C[C@H]2C1	13 µM
CN1CCCN(C(=O)c2ccc(N3CCCC3)cc2Cl)CC1	25 µM
CCCn1c(NC(=O)Cc2ccc(Cl)cc2)nc2ccccc21	> 50 µM (inactive)
CC1CN(S(=O)(=O)c2ccc(NC(=O)c3cc(C4CC4)nc4c3cnn4C(C)C)cc2)CC(C)O1 (centres undefined)	> 50 µM (inactive)
O=[N+]([O-])c1cccc(Nc2cncc(-c3ccccc3CO)c2)c1	40 µM
O=c1ccc2ccc(F)c3c2n1C[C@H]3CN1CCC(NCc2cc3ccccc3o2)CC1	20 µM
COc1ccc(S(=O)(=O)Nc2ccccc2OC)cc1NC(=O)CCCc1c[nH]c2ccccc12	> 50 µM (inactive)
CCCc1nc2nc(N)nc(N)c2cc1CC	32 µM
O=C(Nc1nc(-c2ccc(S(=O)(=O)N3CCOCC3)cc2)cs1)c1ccc([N+](=O)[O-])cc1	25 µM
COc1cc(-c2nc(N3CCOCC3)sc2-c2ccnc(NC3CCOCC3)n2)ccc1Cl	> 50 µM (inactive)
O=S(=O)(c1cccc(CSc2nnc(-c3ccc4c(c3)OCO4)o2)c1)N1CCOCC1	16 µM
NC(=O)c1ccc(-c2cccc(OCCN3CCN(C4CCCCC4)CC3)c2)cc1	16 µM
O=C(NCC(c1cccnc1)N1CCc2ccccc2C1)C(=O)Nc1cccc(Cl)c1 (centres undefined)	25 µM
O=S(=O)(NCC(c1cccnc1)N1CCN(c2ccccc2F)CC1)c1ccc(F)cc1 (centres undefined)	> 50 µM (inactive)
COc1ccc(S(=O)(=O)NC(C)C)cc1Nc1ncc(-c2cccc(F)c2)cn1	5 µM

Structure (SMILES)	IC50
N#Cc1ccc(S(=O)(=O)N2CCN(Cc3cccc(-c4ccncc4)c3)CC2)cc1	13 µM
CNc1c(C(N)=O)c(-c2ccc3scnc3c2)nn1CC(F)(F)F	20 µM
O=C(NCc1ccncc1)c1ccccc1N1CCCN(C(=O)Cc2ccc(F)c(F)c2)CC1	16 µM
Cc1ccc(C)c(-n2nnnc2Sc2nc([N+](=O)[O-])nn2C)c1	> 50 µM (inactive)
Cc1ccc(S(=O)(=O)Cn2nnnc2C(c2cccnc2)N2CCN(c3ccccc3)CC2)cc1 (centres undefined)	32 µM
CCN(CC)S(=O)(=O)c1ccc(C(=O)Nc2cc(C)nn2-c2nc(C)c(C)c(=O)[nH]2)cc1	> 50 µM (inactive)
CC(Cn1ccnc1)NC(=O)COc1ccc(Cl)c(Cl)c1 (centres undefined)	> 50 µM (inactive)
CCOc1ccc(NC(=O)C=Cc2ccc(CC)o2)cc1	32 µM
CC(C)(C)C(O)(CCc1ccc(Cl)cc1)Cn1cncn1 (centres undefined)	> 50 µM (inactive)
COc1ccc(CN(C)Cc2ccncc2)cc1-c1ccc(S(=O)(=O)NC2CCC2)s1	25 µM
Cc1nn(C2CCS(=O)(=O)C2)c(C)c1CN(C)C(=O)C=Cc1sc2ccccc2c1Cl (centres undefined)	> 50 µM (inactive)
Cc1cc(C)c(C#N)c(SCC(=O)c2ccc3c(c2)OCO3)n1	> 50 µM (inactive)
CC(=Cc1ccccc1)CN1CCC(=O)N(Cc2cccnc2)CC1	> 50 µM (inactive)
N#Cc1ccc(S(=O)(=O)N2CCC3(CCN(c4ccccc4)C3=O)CC2)cc1	> 50 µM (inactive)
COc1ccc(C)cc1-c1csc(NC(=O)C(C)n2ccnc2)n1 (centres undefined)	50 µM
O=C(N1CCc2ccccc2CC1)C1(C(=O)N2CCC(n3c(=O)[nH]c4ncccc43)CC2)CC1	40 µM
Cn1nccc1-c1cc(OC(CN)c2ccccc2)cnc1-c1ccco1 (centres undefined)	20 µM
Cc1sc(C)c(C(F)(F)F)c1CNCCCNc1cc(=O)c2ccccc2[nH]1	10 µM
Nc1ncnc2c1ncn2[C@@H]1O[C@H](CO)C[C@H]1O	> 50 µM (inactive)
